Experimental findings from patent US20250164396A1, “METHOD FOR VISUALIZING DENATURED STATE OR AGGREGATED STATE OF PROTEIN” (TOHOKU UNIVERSITY, priority 2022, published 2025) are described below.

Assay [1] has as its system HSP90. As to the kind of experiment: Two-dimensional electrophoresis of probe-labelled HeLa lysate, denatured HSP90 with or without geldanamycin. Format: binding. The settings on record: probe 1 mM, geldanamycin 50 μM, 45° C. for 5 minutes, total protein; FIG. 18. How it is done:
HeLa cells were scraped with a scraper and washed three times with ice-cold PBS, and a protease inhibitor cocktail (Nacalai, 25955-24) was resuspended in ice-cold M-PER buffer (Thermo Fisher Scientific, 78503) and allowed to stand on ice for 10 minutes. After centrifugation at 20,000×g for 20 minutes at 4° C., the supernatant was separated from the cell lysate. The protein concentration was determined by using the BCA method. To the supernatant (2 mg/ml), the same amount of geldanamycin (TCI, […]; final concentration: 50 μM) and DMSO were added, followed by treatment at room temperature for 10 minutes. […] A stock solution (DMSO solution) of 100 mM iPrONBD was added to the sample to a final concentration of 1 mM and allowed to stand at 37° C. for 30 minutes, and the solution was then transferred to a PCR tube. The PCR tube was heated using a thermal cycler (MiniAmp Plus) at 45° C. for 5 minutes and then allowed to stand at room temperature. A sample was prepared according to the protocol of the ReadyPrep 2-D cleanup kit (Bio-Rad), and the final pellets obtained were dissolved in 15 μL of swelling buffer (containing ampolyte, pH: 3-10) included with the Auto2D Glycine Type Reagent Kit, followed by two-dimensional electrophoresis (FIG. 18).

Assay [2] relates to HSP90. Briefly: SDS-PAGE fluorescence detection of denatured HSP90 in HeLa cell lysate, with or without geldanamycin. Format: binding. Particulars: probe 1 mM, geldanamycin 50 μM, each temperature for 5 minutes, pellet fraction; FIG. 16. The procedure: HeLa cells were scraped with a scraper and washed three times with ice-cold PBS, and a protease inhibitor cocktail (Nacalai, 25955-24) was resuspended in ice-cold M-PER buffer (Thermo Fisher Scientific, 78503) and allowed to stand on ice for 10 minutes. After centrifugation at 20,000×g for 20 minutes at 4° C., the supernatant was separated from the cell lysate. The protein concentration was determined by using the BCA method. To the supernatant (2 mg/ml), the same amount of geldanamycin (TCI, […]; final concentration: 50 μM) and DMSO were added, followed by treatment at room temperature for 10 minutes. […] A stock solution (DMSO solution) of 100 mM ONBD was added to the sample to a final concentration of 1 mM and allowed to stand at 37° C. for 30 minutes, and the solution was then transferred to a PCR tube. The PCR tube was heated using a thermal cycler (MiniAmp Plus) at each temperature for 5 minutes and then allowed to stand at room temperature. The sample was centrifuged at 20,000×g for 15 minutes at 4° C. In 1D SDS-PAGE (Bio-Rad, 4-10% acrylamide gel) of the pellet fraction, SDS-PAGE was performed while mixing with 1×SDS sample buffer and heating for 5 minutes at 95° C. Using various probes, SDS-PAGE was performed in the same manner as in Example 17 under heating conditions of 45° C. for 5 minutes (FIG. 17). […]

In assay [3] the target is T1, Bovine carbonic anhydrase (Bos taurus, UniProt P00921).
T1 construct: purchased Aldrich C3934
T1 sequence (P00921 whole entry): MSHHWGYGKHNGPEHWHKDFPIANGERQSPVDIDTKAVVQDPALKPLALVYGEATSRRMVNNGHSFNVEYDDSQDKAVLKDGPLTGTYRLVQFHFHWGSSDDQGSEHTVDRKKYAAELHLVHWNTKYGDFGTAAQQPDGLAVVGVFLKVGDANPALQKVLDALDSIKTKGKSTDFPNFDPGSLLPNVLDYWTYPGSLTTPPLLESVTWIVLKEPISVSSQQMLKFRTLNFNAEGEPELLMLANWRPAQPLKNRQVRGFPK
Briefly: Fluorescence response of ONBD probes to heat denaturation of carbonic anhydrase. The settings on record: 1 mM ONBD compound; heated from 25° C. by 5° C. every 180 seconds; FIG. 1. How it is done:
The PCR tube was heated with a protocol to increase the temperature by 5° C. every 180 seconds from 25° C. using a real-time PCR system (Takara Bio Inc., Thermal Cycler Dice, TP800). The fluorescence (FAM mode for ONBD compounds) was measured at the last 15 seconds of each step. Sypro Orange (Invitrogen S6650, 5000× concentration in DMSO) of the comparison target was added to a final concentration of 10×, the same operation was carried out, and the fluorescence was measured in ROX mode. The ONBD compounds used were the following five types: MeONBD, iPrONBD, nBuONBD, iBuONBD, and octylONBD.

In assay [4] the target is T2, bovine carbonic anhydrase (CAII) (Bos taurus, UniProt P00921).
T2 construct: purchased Aldrich C3934
T2 sequence (P00921 whole entry): as above
Briefly: Detection of heat-denatured CAII in HEK293FT cell disruption solution by two-dimensional electrophoresis, with or without ligand. Format: binding. How it is done:
Thereafter, centrifugation was performed at 14,000×g for 10 minutes, and the supernatant was collected. […] The PCR tube was heated in a thermal cycler (Applied Biosystems, Mini Amp Plus) at 65° C. for 5 minutes and then allowed to stand at room temperature. The subsequent protocol to prepare two-dimensional electrophoresis samples was performed in the following two ways.
(Protocol to collect all proteins) A sample was prepared according to the protocol of the ReadyPrep 2-D cleanup kit (Bio-Rad), and the final pellets obtained were dissolved in 15 μL of swelling buffer (containing ampolyte, pH: 3-10) included with the Auto2D Glycine Type Reagent Kit.
(Protocol to collect pellets) The heated sample was centrifuged (at 20,000×g for 20 minutes), the supernatant was discarded, and the remaining pellets were dissolved in 15 μL of swelling buffer (containing ampolyte, pH: 3-10) included with the Auto2D Glycine Type Reagent Kit.
Two-dimensional electrophoresis was performed according to the long-term protocol of Auto 2D Plus (Merck), and fluorescence images of the resulting gel were obtained using a fluorescence imager (Vilver Lourmat, Fusion Solo S). […] The ONBD compound used was iPrONBD described above.

For assay [5], the target named is T3, α-Synuclein fibril (Homo sapiens, UniProt P37840).
T3 construct: purchased Cosmo Bio Co., Ltd. SYN03
As to the kind of experiment: Quantification of aggregated state of α-synuclein fibril by probe fluorescence. Particulars: 500 nM fibril, 37° C.; FIG. 3. How it is done: α-Synuclein fibril (Cosmo Bio Co., Ltd., SYN03) was diluted with 10 mM MES buffer (pH: 7.4) to prepare a 500 nM solution. The solution was dispensed in 50 μL portions in a 96-well half well black plate (Greiner, 675086). […] The fluorescence (using filters for Ex: […]) was measured in a plate reader (Teccan, Infinite 200 Pro F PLEX) under constant temperature conditions at 37° C. with plate shaking at 1 second per minute. The ONBD compounds used were three types: iPrONBD and octylONBD described above, as well as PEGONBD shown below.

In the case of `CC(C)Oc1ccc([N+](=O)[O-])c2nonc12` [iPrONBD], the “visualization of ligand-induced change in heat denaturation resistance of HSP90 by probe fluorescence” value in assay [1] is reported as “it was possible to visualize changes in the heat denaturation resistance of the target HSP90 by ligand addition”. In assay [2], the “visualization of ligand-induced heat denaturation resistance of HSP90 by probe fluorescence” value is recorded as “it was possible to visualize the acquisition of target heat denaturation resistance by ligand addition”. The “increase in the fluorescence intensity on heating” value in assay [3] is recorded as “the increase in the fluorescence intensity was significant”.

For the molecule `O=[N+]([O-])c1ccc(Br)c2nonc12` [Br-NBD], the “suitability as probe under the denaturation conditions” value in assay [4] (65° C., 5 minutes) was “appropriate probe”. Moreover, in assay [4] (iPrONBD versus BrNDB, FIG. 15), the “reduction in the fluorescence intensity of CA by brinzolamide, comparison of probes” value was “the reduction in the fluorescence intensity of CA was more significant”.

`CCCCCCCCOc1ccc([N+](=O)[O-])c2nonc12` [octylONBD]: the “increase in fluorescence intensity over time in the presence of α-synuclein fibril” value in assay [5] is on record as “the increase in the fluorescence intensity was significant”.
